Reference: patent US10800778B2 (Entasis Therapeutics Limited, priority 2016, dated 2020)
pIC50: −log10 of the molar value. Where a name gives a salt, the structure may show the parent alone.

Columns and labels:
[1] = target: TEM-1 (Class A beta-lactamase) (Escherichia coli, UniProt P62593); assay: Inhibition of beta-lactamase enzymes (nitrocefin hydrolysis), TEM-1; type: biochemical; conditions: read-out: Class A TEM-1 60 min IC50, nitrocefin 100 μM
Method: (§1) A buffer consisting of 0.1 M sodium phosphate (pH 7.0), 10 mM NaHCO3, and 0.005% Triton X-100 was used for all enzymes. The chromogenic substrate nitrocefin (SynGene, Bangalore, India) was used at 100 μM. Enzyme activity was monitored by the 490 nm absorbance increase upon nitrocefin hydrolysis. Assays were performed in clear polystyrene 384-well plates (Greiner Bio-One, Monroe, N.C.). Absorbance was measured for 1 hour at 30-s intervals using a Spectramax absorbance plate reader (Molecular Devices, Sunnyvale, Calif.). Measurement of beta-lactamase inhibition by INHIBITOR employed serial 3-fold dilutions of the inhibitor in assay buffer, ranging from 100 μM to 62.7 pM. A background absorbance progress curve for a control lacking enzyme and inhibitor was subtracted from each progress curve.
(§2) The complete set of progress curves for one enzyme with all inhibitor concentrations was subjected to numerical integration with the program Kintek Global Kinetic Explorer (Kintek Corp, Snowshoe Pa.) to obtain a best-fit to the mechanism shown in Scheme 10.
(§3) where E, S, ES, P, I, and EI are the concentrations of the enzyme, nitrocefin, the enzyme-nitrocefin complex, the nitrocefin hydrolysis product, INHIBITOR, and the enzyme-INHIBITOR complex respectively. […] The values of k+2, k+3, and k−3 were fit. Concentration series offsets of the absorbance measurements were used to correct for slight absorbance baseline differences between wells. The parameter k+3 is equivalent to the second order rate constant kinact/Ki. In some cases, the inhibition was in rapid equilibrium on the experimental time scale, so that only the ratio k−3/k+3=Ki could be determined. Although k−3 represents reversal of inhibitor binding in Scheme 10, hydrolysis of the enzyme-inhibitor complex could not be excluded based on kinetic measurements.
(§4) Best-fit absorbance values from the above procedure at each time point for each compound concentration were exported to Excel.
(§5) where A is the best-fit absorbance without inhibitor and Ainhib is the best-fit absorbance in the presence of the inhibitor.
(§6) where [I] is the inhibitor concentration and n is the Hill coefficient. The Excel add-in XLfit (ID Business Solutions) was used for nonlinear regression.

[2] = target: OXA-48 (Class D beta-lactamase) (Klebsiella pneumoniae, UniProt Q6XEC0); assay: Inhibition of beta-lactamase enzymes (nitrocefin hydrolysis), OXA-48; type: biochemical; conditions: read-out: Class D OXA-48 60 min IC50, nitrocefin 100 μM
OXA-48 (Class D beta-lactamase), sequence (Q6XEC0 whole entry, looked up, species assumed): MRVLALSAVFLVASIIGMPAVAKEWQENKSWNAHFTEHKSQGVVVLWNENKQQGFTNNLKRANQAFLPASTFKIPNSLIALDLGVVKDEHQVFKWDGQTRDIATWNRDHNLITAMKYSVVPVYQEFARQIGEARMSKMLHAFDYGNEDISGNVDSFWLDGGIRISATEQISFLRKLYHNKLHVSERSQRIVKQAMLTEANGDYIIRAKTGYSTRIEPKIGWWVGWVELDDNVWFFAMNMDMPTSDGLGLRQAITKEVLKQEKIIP
Method: as §1, §2, §3, §4, §5, §6

TEM-1 (Class A beta-lactamase), sequence (P62593 whole entry, looked up, species assumed): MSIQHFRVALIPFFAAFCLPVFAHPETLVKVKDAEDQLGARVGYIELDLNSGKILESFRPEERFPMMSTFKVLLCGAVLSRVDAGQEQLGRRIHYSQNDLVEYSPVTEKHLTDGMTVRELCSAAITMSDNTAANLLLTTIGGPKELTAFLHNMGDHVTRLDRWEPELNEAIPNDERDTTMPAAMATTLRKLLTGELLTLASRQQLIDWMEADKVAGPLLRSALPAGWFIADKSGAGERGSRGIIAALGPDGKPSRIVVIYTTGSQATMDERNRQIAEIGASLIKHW

CC1=C[C@@H](C#N)N2C[C@@H]1N(O[C@H](F)C(=O)O)C2=O [Example 95, (2R)-2-(((2S,5R)-2-cyano-4-methyl-7-oxo-1,6-diazabicyclo[3.2.1]oct-3-en-6-yl)oxy)-2-fluoroacetic acid lithium salt]
pIC50 [1]: 7.46 | pIC50 [2]: 8.89

NC(=O)[C@@H]1C(C2CC2)=C[C@@H]2CN1C(=O)N2OC(F)C(=O)O (stereo in doubt) [Example 42, (2R)-2-(((2S,5R)-2-carbamoyl-3-cyclopropyl-7-oxo-1,6-diazabicyclo[3.2.1]oct-3-en-6-yl)oxy)-2-fluoroacetic acid lithium salt]
pIC50 [1]: 7.62 | pIC50 [2]: 8.28

CC1=C[C@@H]2CN(C(=O)N2O[C@@H](F)C(=O)O)[C@@H]1C(=O)NOCC1CC1 [Example 70, (2S)-2-[[(2S,5R)-2-(cyclopropylmethoxycarbamoyl)-3-methyl-7-oxo-1,6-diazabicyclo[3.2.1]oct-3-en-6-yl]oxy]-2-fluoro-acetic acid lithium salt]
pIC50 [1]: 7.59 | pIC50 [2]: 7.06

NC(=O)[C@@H]1CC[C@@H]2CN1C(=O)N2O[C@H](F)C(=O)O [Comparator 98, reference compound]
pIC50 [1]: 8.89 | pIC50 [2]: 5.59

CC1=C[C@@H]2CN(C(=O)N2O[C@@H](F)C(=O)O)[C@@H]1CNC(=O)OC(C)(C)C [Example 76, (2S)-2-[[(2S,5R)-2-[tert-butoxycarbonylamino)methyl]-3-methyl-7-oxo-1,6-diazabicyclo[3.2.1]oct-3-en-6-yl]oxy]-2-fluoro-acetic acid lithium salt]
pIC50 [1]: 6.03 | pIC50 [2]: 6.66

CC1=C[C@@H]2CN(C(=O)N2O[C@@H](F)C(=O)O)[C@@H]1C(=O)NCCC(N)=O [Example 71, (2S)-2-[[(2S,5R)-2-[(3-amino-3-oxo-propyl)carbamoyl]-3-methyl-7-oxo-1,6-diazabicyclo[3.2.1]oct-3-en-6-yl]oxy]-2-fluoro-acetic acid lithium salt]
pIC50 [1]: 6.96 | pIC50 [2]: 7.12

CC1=C[C@@H]2CN(C(=O)N2OCC(=O)O)[C@@H]1C(N)=O [Example 10, {[(2S,5R)-2-carbamoyl-3-methyl-7-oxo-1,6-diazabicyclo[3.2.1]oct-3-en-6-yl]oxy}acetic acid lithium salt]
pIC50 [1]: 6.37 | pIC50 [2]: 7.29

CC1=C[C@@H]2CN(C(=O)N2O[C@@H](F)C(=O)O)[C@@H]1CNC(=O)C(F)(F)F [Example 79, (2S)-2-fluoro-2-[[(2S,5R)-3-methyl-7-oxo-2-[[(2,2,2-trifluoroacetyl)-aminolmethyl]-1,6-diazabicyclo[3.2.1]oct-3-en-6-yl]oxy]acetic acid lithium salt]
pIC50 [1]: 5.38 | pIC50 [2]: 5.24

CC1=C[C@@H]2CN(C(=O)N2O[C@@H](F)C(=O)O)[C@@H]1C(=O)NCO [Example 87, (2S)-2-fluoro-2-[[(2S,5R)-2-(hydroxymethylcarbamoyl)-3-methyl-7-oxo-1,6-diazabicyclo[3.2.1]oct-3-en-6-yl]oxy]acetic acid lithium salt]
pIC50 [1]: 6.82 | pIC50 [2]: 7.96

CC1=C[C@@H](C(N)=O)N2C[C@@H]1N(OC(F)(F)C(=O)O)C2=O [Example 91, 2-(((2S,5R)-2-carbamoyl-4-methyl-7-oxo-1,6-diazabicyclo[3.2.1]oct-3-en-6-yl)oxy)-2,2-difluoroacetic acid lithium salt]
pIC50 [1]: 9.33 | pIC50 [2]: 7.74

CC1=C[C@@H]2CN(C(=O)N2O[C@@H](F)C(=O)O)[C@@H]1C(=O)NC1COC1 [Example 66, (2S)-2-fluoro-2-[[(2S,5R)-3-methyl-2-(oxetan-3-ylcarbamoyl)-7-oxo-1,6-diazabicyclo[3.2.1]oct-3-en-6-yl]oxy]acetic acid lithium salt]
pIC50 [1]: 6.18 | pIC50 [2]: 7.92

CC1=C[C@@H]2CN(C(=O)N2O[C@@H](F)C(=O)O)[C@@H]1C(=O)NOC[C@@H]1CCC(=O)N1 [Example 72, (2S)-2-fluoro-2-[[(2S,5R)-3-methyl-7-oxo-2-[(5-oxopyrrolidin-2-yl)methoxycarbamoyl]-1,6-diazabicyclo[3.2.1]oct-3-en-6-yl]oxy]acetic acid lithium salt]
pIC50 [1]: 7.11 | pIC50 [2]: 6.96

CC1=C[C@@H]2CN(C(=O)N2O[C@@H](F)C(=O)O)[C@@H]1C(=O)NCC[C@@H]1CCC(=O)N1 [Example 73, (2S)-2-fluoro-2-[[(2S,5R)-3-methyl-7-oxo-2-[2-(5-oxopyrrolidin-2-yl)ethylcarbamoyl]-1,6-diazabicyclo[3.2.1]oct-3-en-6-yl]oxy]acetic acid lithium salt]
pIC50 [1]: 6.14 | pIC50 [2]: 6.28

CC(=O)NC[C@@H]1C(C)=C[C@@H]2CN1C(=O)N2O[C@@H](F)C(=O)O [Example 78, (2S)-2-[[(2S,5R)-2-(acetamidomethyl)-3-methyl-7-oxo-1,6-diazabicyclo[3.2.1]oct-3-en-6-yl]oxy]-2-fluoro-acetic acid lithium salt]
pIC50 [1]: 5.44 | pIC50 [2]: 6.16

CC1=C[C@@H]2CN(C(=O)N2O[C@@H](F)C(=O)O)[C@@H]1C(=O)NCNS(N)(=O)=O [Example 89, lithium salt]
pIC50 [1]: 7.48 | pIC50 [2]: 6.82

CC1=C[C@@H]2CN(C(=O)N2OC(F)C(=O)O)[C@@H]1c1nnc(C(N)=O)o1 (stereo partly drawn) [Example 55, 2-[[(2S,5R)-2-(5-carbamoyl-1,3,4-oxadiazol-2-yl)-3-methyl-7-oxo-1,6-diazabicyclo[3.2.1]oct-3-en-6-yl]oxy]-2-fluoro-acetic acid lithium salt]
pIC50 [1]: 7.62 | pIC50 [2]: 8.14

CC1=C[C@@H]2CN(C(=O)N2O[C@@H](F)C(=O)O)[C@@H]1CN [Example 77, (2S)-2-[[(2S,5R)-2-(aminomethyl)-3-methyl-7-oxo-1,6-diazabicyclo[3.2.1]oct-3-en-6-yl]oxy]-2-fluoro-acetic acid]
pIC50 [1]: < 4.00 | pIC50 [2]: < 4.00

CC1=C[C@@H]2CN(C(=O)N2O[C@@H](F)C(=O)O)[C@@H]1C(=O)NOC[C@@H]1CC(F)(F)CN1 [Example 63, (2S)-2-(((2S,5R)-2-((((S)-4,4-difluoropyrrolidin-2-yl)methoxy)carbamoyl)-3-methyl-7-oxo-1,6-diazabicyclo[3.2.1]oct-3-en-6-yl)oxy)-2-fluoroacetic acid TFA salt]
pIC50 [1]: 6.96 | pIC50 [2]: 6.64

CC1=C[C@@H]2CN(C(=O)N2O[C@@H](F)C(=O)O)[C@@H]1C(=O)NCc1cnccn1 [Example 69, (2S)-2-fluoro-2-[[(2S,5R)-3-methyl-7-oxo-2-(pyrazin-2-ylmethyl-carbamoyl)-1,6-diazabicyclo[3.2.1]oct-3-en-6-yl]oxy]acetic acid lithium salt]
pIC50 [1]: 6.74 | pIC50 [2]: 6.96

CC1=C[C@@H]2CN(C(=O)N2OC(F)C(=O)O)[C@@H]1C(N)=O (mixture of isomers) [Example 5, {[(2S,5R)-2-carbamoyl-3-methyl-7-oxo-1,6-diazabicyclo[3.2.1]oct-3-en-6-yl]oxy}(fluoro)acetic acid lithium salt (mixture of diastereomers)]
pIC50 [1]: 8.36 | pIC50 [2]: 7.77

CC1=C[C@@H]2CN(C(=O)N2O[C@@H](F)C(=O)O)[C@@H]1C(=O)NCCS(N)(=O)=O [Example 57, (2S)-2-fluoro-2-[[(2S,5R)-3-methyl-7-oxo-2-(2-sulfamoylethylcarbamoyl)-1,6-diazabicyclo[3.2.1]oct-3-en-6-yl]oxy]acetic acid lithium salt]
pIC50 [1]: 7.24 | pIC50 [2]: 6.39

CC1=C[C@@H]2CN(C(=O)N2OC(F)(F)C(=O)O)[C@@H]1C(N)=O [Example 8, {[(2S,5R)-2-carbamoyl-3-methyl-7-oxo-1,6-diazabicyclo[3.2.1]oct-3-en-6-yl]oxy}(difluoro)acetic acid lithium salt]
pIC50 [1]: 8.82 | pIC50 [2]: 7.85

CC(=O)NNC(=O)[C@@H]1C(C)=C[C@@H]2CN1C(=O)N2OC(F)C(=O)O (stereo partly drawn) [Example 27, 2-(((2S,5R)-2-(2-acetylhydrazinecarbonyl)-3-methyl-7-oxo-1,6-diazabicyclo[3.2.1]oct-3-en-6-yl)oxy)-2-fluoroacetic acid lithium salt]
pIC50 [1]: 7.33 | pIC50 [2]: 7.74

O=C(O)C(F)ON1C(=O)N2C[C@H]1CC[C@H]2C(=O)NC1CCNCC1 (some centres unmarked) [Comparator 99, reference compound]
pIC50 [1]: 7.52 | pIC50 [2]: 4.09

CC1=C[C@@H]2CN(C(=O)N2O[C@@H](F)C(=O)O)[C@@H]1C(=O)NOCCS(N)(=O)=O [Example 56, (2S)-2-fluoro-2-[[(2S,5R)-3-methyl-7-oxo-2-(2-sulfamoylethoxycarbamoyl)-1,6-diazabicyclo[3.2.1]oct-3-en-6-yl]oxy]acetic acid lithium salt]
pIC50 [1]: 7.03 | pIC50 [2]: 6.66
